How the values were obtained:
[1] = test system: GTPCH; details: competes with GTP, a substrate for GTPCH (Gross and Levi 1992); cited from earlier work
[2] = test system: human GTPCH; experiment: GCH1 siRNA transfection of GCHtet-off and MCF7 cells, expression of GTPCH and phosphor-Akt; assay type: cell-based; details: 10 nM siRNA, Lipofactamine RNAiMAX, 48 hours
Protocol: GCHtet-off cells (described above) and MCF7 cells (4×10^5/well) were cultured in a 24-well plate and transfected with 10 nM of GCH1 siRNA (comprising the sequences of Seq ID Nos: 1 and 2) and scramble siRNA (SCR), respectively using Lipofactamine RNAiMAX. After 48 hours, the cells were harvested and the expression of human GTPCH, phosphor-Akt and GAPDH was determined. The results are illustrated in FIG. 8. A correlation between human GTPCH expression and phosphor-Akt was observed.

| Compound | GTPCH protein activity [1] | Akt phosphorylation [2] | GTPCH expression [2] |
| --- | --- | --- | --- |
| Nc1cc(O)nc(N)n1 [DAHP, 2,4-diamino-6-hydroxypyrimidine] | inhibits GTPCH protein activity | – | – |
| GCH1 siRNA: siRNA comprising the sequences of Seq ID Nos: 1 and 2, designed to reduce GTPCH expression (chain 1 CCUAAACGAUGCUAUAUUUTT; chain 2 AAAUAUAGCAUCGUUUAGGTT; chemistry not given here) | – | Reduction | Downregulated |
